Data as given in US10226451B2, “Substituted bicyclic compounds as bromodomain inhibitors” (ZENITH EPIGENETICS LTD, priority 2013, dated 2019).

What was measured:
[1] = test system: hIL-6 mRNA in U937 cells; test: Inhibition of hIL-6 mRNA transcription in LPS-stimulated U937 cells; type: cell-based; settings: Homo sapiens, U-937, PMA-differentiated U937 cells, LPS 1 ug/mL, 3 h, read-out: IL-6 activity
Experimental: In this example, hIL-6 mRNA in tissue culture cells were quantitated to measure the transcriptional inhibition of hIL-6 when treated with a compound of the present disclosure.
Human leukemic monocyte lymphoma U937 cells (CRL-1593.2) were plated at a density of 3.2×10^4 cells per well in a 96-well plate in 100 μL RPMI-1640 containing 10% FBS and penicillin/streptomycin, and differentiated into macrophages for 3 days in 60 ng/mL PMA ([…]) at 37° C. in 5% CO2 prior to the addition of compound. The cells were pretreated for 1 h with increasing concentrations of test compound in 0.1% DMSO prior to stimulation with 1 ug/mL lipopolysaccharide from Escherichia coli. Triplicate wells were used for each concentration. The cells were incubated at 37° C., 5% CO2 for 3 h before the cells were harvested. At time of harvest, media was removed and cells were rinsed in 200 μL PBS. Cells were harvested using the mRNA Catcher PLUS kit according to manufacturer's instructions. The eluted mRNA was then used in a one-step quantitative real-time PCR reaction using components of the RNA UltraSense™ One-Step Kit (Life Technologies) together with Applied Biosystems TaqMan® primer-probes for hIL-6 and Cyclophilin. Real-time PCR plates were run on a ViiA™7 real time PCR machine (Applied Biosystems), data was analyzed, normalizing the Ct values for hIL-6 to an internal control, prior to determining the fold expression of each sample, relative to the control.

[2] = molecular target: T1, Brd4 bromodomain 1 (BRD4(1)) (Homo sapiens, UniProt O60885); test: Inhibition of tetra-acetylated histone H4 binding to Brd4 bromodomain 1 (HTRF/FRET); settings: tetra-acetylated histone H4 peptide, His-tagged bromodomain 200 nM, 2 h
T1 construct: made in house; host or cells: E. coli BL21(DE3)
Experimental: Proteins were cloned and overexpressed with a N-terminal 6×His tag, then purified by nickel affinity followed by size exclusion chromatography. Briefly, E. coli BL21(DE3) cells were transformed with a recombinant expression vector encoding N-terminally Nickel affinity tagged bromodomains from Brd2, Brd3, Brd4. Cell cultures were incubated at 37° C. with shaking to the appropriate density and induced overnight with IPTG. The supernatant of lysed cells was loaded onto Ni-IDA column for purification. Eluted protein was pooled, concentrated and further purified by size exclusion chromatography. Fractions representing monomeric protein were pooled, concentrated, aliquoted, and frozen at −80° C. for use in subsequent experiments.
Binding of tetra-acetylated histone H4 and BET bromodomains was confirmed by a Homogenous Time Resolved Fluorescence Resonance Energy Transfer (HTRF®) method. N-terminally His-tagged bromodomains (200 nM) and biotinylated tetra-acetylated histone H4 peptide (25-50 nM, Millipore) were incubated in the presence of Europium Cryptate-labeled streptavidin (Cisbio Cat. #610SAKLB) and XL665-labeled monoclonal anti-His antibody (Cisbio Cat. #61HISXLB) in a white 96 well microtiter plate (Greiner). For inhibition assays, serially diluted test compound was added to these reactions in a 0.2% final concentration of DMSO. Duplicate wells were used for each concentration tested. Final buffer concentrations were 30 mM HEPES pH 7.4, 30 mM NaCl, 0.3 mM CHAPS, 20 mM phosphate pH 7.0, 320 mM KF, 0.08% BSA. After a 2 h incubation at room temperature, fluorescence was measured at 665 and 620 nm with a SynergyH4 plate reader (Biotek). The binding inhibitory activity was shown by a decrease in 665 nm relative to 620 nm fluorescence. IC50 values were determined from a dose response curve.

[3] = test system: c-myc in Human AML MV4-11 cells; test: Inhibition of c-MYC expression (mRNA, real-time PCR) in MV4-11 cells; type: cell-based; settings: 3 h, mRNA by real-time PCR
Experimental: MV4-11 cells (CRL-9591) were plated at a density of 2.5×10^4 cells per well in 96 well U-bottom plates and treated with increasing concentrations of test compound or DMSO (0.1%) in IMDM media containing 10% FBS and penicillin/streptomycin, and incubated for 3 h at 37° C. Triplicate wells were used for each concentration. Cells were pelleted by centrifugation and harvested using the mRNA Catcher PLUS kit according to manufacturer's instructions. The eluted mRNA isolated was then used in a one-step quantitative real-time PCR reaction, using components of the RNA UltraSense™ One-Step Kit (Life Technologies) together with Applied Biosystems TaqMan® primer-probes for cMYC and Cyclophilin. Real-time PCR plates were run on a ViiA™7 real time PCR machine (Applied Biosystems), data was analyzed, normalizing the Ct values for hMYC to an internal control, prior to determining the fold expression of each sample, relative to the control.

[4] = test system: Human AML MV-4-11 cells; test: Inhibition of cell proliferation in MV4-11 cells (CellTiter Aqueous One); type: cell-based; settings: 72 h
Experimental: In this example, cell titer in MV4-11 cells were quantitated to measure the inhibition of proliferation when treated with a compound of the present disclosure.
MV4-11 cells (CRL-9591) were plated at a density of 5×10^4 cells per well in 96 well flat bottom plates and treated with increasing concentrations of test compound or DMSO (0.1%) in IMDM media containing 10% FBS and penicillin/streptomycin. Triplicate wells were used for each concentration and a well containing only media was used as a control. Plates were incubated at 37° C., 5% CO2 for 72 h before adding 20 μL of the CellTiter Aqueous One Solution (Promega) to each well and incubated at 37° C., 5% CO2 for an additional 3-4 h. The absorbance was read at 490 nm in a spectrophotometer and the percentage of cell titer relative to DMSO-treated cells was calculated after correcting for background by subtracting the blank well's signal. IC50 values were calculated using the Graph Pad Prism software.

Row | SMILES | IC50 [1] [µM] | IC50 [2] [µM] | IC50 [3] [µM] | IC50 [4] [µM]
1 | Cc1noc(C)c1-c1cc(-c2c(C)noc2C)c2oc(=O)[nH]c2c1 [Example Compound 3, 5,7-bis(3,5-dimethylisoxazol-4-yl)benzo[d]oxazol-2(3H)-one] | 0.3 to 3 | ≤ 0.3 | 3 to 30 | 3 to 30
2 | Cc1ccncc1-c1cc(-c2c(C)noc2C)cc2[nH]c(=O)n(C)c12 [Example Compound 6, 5-(3,5-dimethylisoxazol-4-yl)-1-methyl-7-(4-methylpyridin-3-yl)-1H-benzo[d]imidazol-2(3H)-one] | ≤ 0.3 | ≤ 0.3 | ≤ 0.3 | 0.3 to 3
3 | Cc1noc(C)c1-c1cc(-c2cccnc2C(F)(F)F)c2c(c1)[nH]c(=O)n2C [Example Compound 8, 5-(3,5-dimethylisoxazol-4-yl)-1-methyl-7-(2-(trifluoromethyl)pyridin-3-yl)-1H-benzo[d]imidazol-2(3H)-one] | 0.3 to 3 | ≤ 0.3 | 0.3 to 3 | 0.3 to 3
4 | COc1ccc(C)cc1-c1cc(-c2c(C)noc2C)cc2[nH]c(=O)n(C)c12 [Example Compound 12, 5-(3,5-dimethylisoxazol-4-yl)-7-(2-methoxy-5-methylphenyl)-1-methyl-1H-benzo[d]imidazol-2(3H)-one] | 0.3 to 3 | ≤ 0.3 | – | 0.3 to 3
5 | Cc1noc(C)c1-c1cc(-c2cccc(C#N)c2C)c2c(c1)[nH]c(=O)n2C [Example Compound 14, 3-(6-(3,5-dimethylisoxazol-4-yl)-3-methyl-2-oxo-2,3-dihydro-1H-benzo[d]imidazol-4-yl)-2-methylbenzonitrile] | – | ≤ 0.3 | ≤ 0.3 | 0.3 to 3
6 | Cc1noc(C)c1-c1cc(-c2c(C)noc2C)c2c(c1)n(C)c(=O)n2C [Example Compound 15, 4,6-bis(3,5-dimethylisoxazol-4-yl)-1,3-dimethyl-1H-benzo[d]imidazol-2(3H)-one] | – | ≤ 0.3 | 0.3 to 3 | 0.3 to 3
7 | Cc1ccc(C#N)cc1-c1cc(-c2c(C)noc2C)cc2[nH]c(=O)n(C)c12 [Example Compound 16, 3-(6-(3,5-dimethylisoxazol-4-yl)-3-methyl-2-oxo-2,3-dihydro-1H-benzo[d]imidazol-4-yl)-4-methylbenzonitrile] | 0.3 to 3 | ≤ 0.3 | ≤ 0.3 | 0.3 to 3
8 | COc1ccncc1-c1cc(-c2c(C)noc2C)cc2[nH]c(=O)n(C)c12 [Example Compound 17, 5-(3,5-dimethylisoxazol-4-yl)-7-(4-methoxypyridin-3-yl)-1-methyl-1H-benzo[d]imidazol-2(3H)-one] | – | ≤ 0.3 | ≤ 0.3 | 0.3 to 3
9 | Cc1ccc(Cl)cc1-c1cc(-c2c(C)noc2C)cc2[nH]c(=O)n(C)c12 [Example Compound 19, 7-(5-chloro-2-methylphenyl)-5-(3,5-dimethylisoxazol-4-yl)-1-methyl-1H-benzo[d]imidazol-2(3H)-one] | 0.3 to 3 | ≤ 0.3 | ≤ 0.3 | 0.3 to 3
10 | Cc1noc(C)c1-c1cc(-c2c(C)nn(C)c2C)c2[nH]c(=S)[nH]c2c1 [Example Compound 23, 6-(3,5-dimethylisoxazol-4-yl)-4-(1,3,5-trimethyl-1H-pyrazol-4-yl)-1H-benzo[d]imidazole-2(3H)-thione] | ≤ 0.3 | ≤ 0.3 | ≤ 0.3 | ≤ 0.3
11 | Cc1ccncc1-c1cc(-c2c(C)noc2C)cc2[nH]c(=S)[nH]c12 [Example Compound 24, 6-(3,5-dimethylisoxazol-4-yl)-4-(4-methylpyridin-3-yl)-1H-benzo[d]imidazole-2-thiol] | – | ≤ 0.3 | ≤ 0.3 | 0.3 to 3
12 | Cc1ccc(C#N)cc1-c1cc(-c2c(C)noc2C)cc2[nH]c(=S)[nH]c12 [Example Compound 25, 3-(6-(3,5-dimethylisoxazol-4-yl)-2-thioxo-2,3-dihydro-1H-benzo[d]imidazol-4-yl)-4-methylbenzonitrile] | – | ≤ 0.3 | ≤ 0.3 | 0.3 to 3
13 | Cc1noc(C)c1-c1cc(-c2c(Cl)cncc2Cl)c2c(c1)[nH]c(=O)n2C [Example Compound 35, 7-(3,5-dichloropyridin-4-yl)-5-(3,5-dimethylisoxazol-4-yl)-1-methyl-1H-benzo[d]imidazol-2(3H)-one] | 0.3 to 3 | ≤ 0.3 | – | –
14 | Cc1noc(C)c1-c1cc(-c2cnc3ccccc3c2)c2c(c1)[nH]c(=O)n2C [Example Compound 36, 5-(3,5-dimethylisoxazol-4-yl)-1-methyl-7-(quinolin-3-yl)-1H-benzo[d]imidazol-2(3H)-one] | – | 0.3 to 3 | 0.3 to 3 | 0.3 to 3
15 | Cc1noc(C)c1-c1cc(-c2ccccc2Cl)c2c(c1)[nH]c(=O)n2C [Example Compound 37, 7-(2-chlorophenyl)-5-(3,5-dimethylisoxazol-4-yl)-1-methyl-1H-benzo[d]imidazol-2(3H)-one] | – | 0.3 to 3 | 0.3 to 3 | 0.3 to 3
16 | COc1ccc(F)c(-c2cc(-c3c(C)noc3C)cc3[nH]c(=O)n(C)c23)c1 [Example Compound 41, 5-(3,5-dimethylisoxazol-4-yl)-7-(2-fluoro-5-methoxyphenyl)-1-methyl-1H-benzo[d]imidazol-2(3H)-one] | – | ≤ 0.3 | – | –
17 | COc1ccc(Cl)cc1-c1cc(-c2c(C)noc2C)cc2[nH]c(=O)n(C)c12 [Example Compound 42, 7-(5-chloro-2-methoxyphenyl)-5-(3,5-dimethylisoxazol-4-yl)-1-methyl-1H-benzo[d]imidazol-2(3H)-one] | – | ≤ 0.3 | – | –
18 | COc1cccc(-c2cc(-c3c(C)noc3C)cc3[nH]c(=O)n(C)c23)c1F [Example Compound 43, 5-(3,5-dimethylisoxazol-4-yl)-7-(2-fluoro-3-methoxyphenyl)-1-methyl-1H-benzo[d]imidazol-2(3H)-one] | – | 0.3 to 3 | – | –
19 | Cc1noc(C)c1-c1cc(-c2ccc3ocnc3c2)c2c(c1)[nH]c(=O)n2C [Example Compound 46, 7-(benzo[d]oxazol-5-yl)-5-(3,5-dimethylisoxazol-4-yl)-1-methyl-1H-benzo[d]imidazol-2(3H)-one] | – | ≤ 0.3 | – | –
